Laboratory results as given in paper PMC6152678, “In Vitro Comparative Study of the Inhibitory Effects of Mangiferin and Its Aglycone Norathyriol towards UDP-Glucuronosyl Transferase (UGT) Isoforms” (Molecules : A Journal of Synthetic Chemistry and Natural …, 2017).

Legend:
UGT2B7 = target: T1, UGT2B7 (Homo sapiens, UniProt P16662); assay: Inhibition of recombinant UGT-catalyzed 4-MU glucuronidation; assay type: biochemical; conditions: pH 7.4, probe 4-methylumbelliferone (4-MU), 350 μM, 100 μM compound, 4-MU probe substrate, negative = activation
T1 construct: purchased BD Gentest Corp. (Woburn, MA, USA); host or cells: baculovirus-infected insect cells
T1 sequence (P16662 24-529): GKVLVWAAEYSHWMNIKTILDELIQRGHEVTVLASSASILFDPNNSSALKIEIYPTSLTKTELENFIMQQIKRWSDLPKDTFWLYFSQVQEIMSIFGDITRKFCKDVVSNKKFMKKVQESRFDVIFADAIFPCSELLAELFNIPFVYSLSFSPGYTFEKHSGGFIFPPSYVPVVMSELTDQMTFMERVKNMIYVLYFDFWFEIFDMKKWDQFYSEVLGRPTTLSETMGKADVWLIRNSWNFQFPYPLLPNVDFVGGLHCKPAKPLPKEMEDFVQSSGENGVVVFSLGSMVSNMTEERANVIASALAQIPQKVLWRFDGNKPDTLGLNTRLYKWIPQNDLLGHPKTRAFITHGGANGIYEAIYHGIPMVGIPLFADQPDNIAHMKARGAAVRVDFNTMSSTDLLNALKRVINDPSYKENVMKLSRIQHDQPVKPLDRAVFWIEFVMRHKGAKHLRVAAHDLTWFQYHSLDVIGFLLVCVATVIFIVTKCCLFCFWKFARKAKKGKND
Procedure: (§1) Sigma-Aldrich (St Louis, MO, USA) provided the following constituents in the incubation mixture: 4-methylumbelliferone (4-MU), 4-methylumbelliferone-β-D-glucuronide (4-MUG), Tris-HCl, 7-hydroxycoumarin, and uridine-diphosphoglucuronic acid (UDPGA) (trisodium salt). All other compounds were of high-performance liquid chromatography (HPLC) grade or of the highest grade commercially available. For enzyme sources, recombinant UGT isoforms expressed in baculovirus-infected insect cells were purchased from BD Gentest Corp. (Woburn, MA, USA), including UGT1A1, 1A3, 1A6, 1A7, 1A8, 1A9, 1A10, 2B4, 2B7, 2B15, and 2B17.
(§2) 4-MU, a nonspecific probe substrate for all the UGT isoforms, was employed to investigate the inhibition of MEF and NIR towards the activity of UGT isoforms. The incubation and analytical methods have been previously described. […] MEF and NIR were dissolved in the DMSO to make a stock solution of 20 mM, and various concentrations of working solutions were prepared through dilution with DMSO. 4-MU was used as a non-selective substrate of UGTs. There was a 5-min pre-incubation step at 37 °C before the reaction was initiated by the addition of UDPGA. 4-MU and inhibitors were previously dissolved in DMSO, and the total concentration of DMSO was 1%. The reactions were continued at 37 °C for 120 min for UGT1A1, UGT1A3, UGT1A10, UGT2B4, UGT2B7, UGT2B15 and UGT2B17, 30 min for UGT1A6, UGT1A7, UGT1A8, and UGT1A9, respectively. Reactions were terminated by the addition of 100 μL acetonitrile with 7-hydroxycoumarin (100 μM) as internal standard. The incubation mixtures were then centrifuged at 12,000 r/min for 10 min. 2 μL supernatant was injected into the UPLC system for analysis. An ACQUITY UPLC System (Waters, Milford, MA, USA) equipped with UV detector was used to analyze the samples, and the separation of all the compounds were carried out using a ACQUITY UPLC® BEH C18 (2.1 × 100 mm, 1.7 μm Waters) at a flow rate of 0.2 mL/min and UV detector at 316 nm. The mobile phase was consisted of ultrapure water containing 0.5% formic acid (A) and acetonitrile (B). The following gradient condition was used: 0–3.5 min, 10–65% B; 3.5–4.0 min, 65% B; 4.0–9.0 min, 10% B. To calculate the standard curve 0.1–100 μM of 4-MUG was used through drawing the peak area ration of 4-MUG/internal standard towards the concentration range of 4-MUG. The curve was linear over this concentration range, with an r^2 value > 0.99.
(§3) The inhibition type and Kinetics were determined for the inhibition of NTR towards UGT1A3, UGT1A7 and UGT1A9. The glucuronidation velocity of 4-MU was determined at multiple concentrations of 4-MU and NTR. Dixon and Lineweaver–Burk plots were employed to determine the inhibition type, and the second plot of the slopes from the Lineweaver–Burk plot versus the compound concentrations was utilized to calculate the Ki value. The determination of IC50 was calculated using Probit analysis in SPSS11.5 (SPSS, Chicago, IL, USA). The Student’s t-test was adopted at a significance level of p < 0.05 to determine statistically significant differences among experimental groups.

UGT1A8 = target: T2, UGT1A8 (Homo sapiens, UniProt Q9HAW9); assay: as above; assay type: biochemical; conditions: pH 7.4, probe 4-methylumbelliferone (4-MU), 750 μM, 100 μM compound, 4-MU probe substrate, negative = activation
T2 construct: purchased BD Gentest Corp. (Woburn, MA, USA); host or cells: baculovirus-infected insect cells
T2 sequence (Q9HAW9 26-530): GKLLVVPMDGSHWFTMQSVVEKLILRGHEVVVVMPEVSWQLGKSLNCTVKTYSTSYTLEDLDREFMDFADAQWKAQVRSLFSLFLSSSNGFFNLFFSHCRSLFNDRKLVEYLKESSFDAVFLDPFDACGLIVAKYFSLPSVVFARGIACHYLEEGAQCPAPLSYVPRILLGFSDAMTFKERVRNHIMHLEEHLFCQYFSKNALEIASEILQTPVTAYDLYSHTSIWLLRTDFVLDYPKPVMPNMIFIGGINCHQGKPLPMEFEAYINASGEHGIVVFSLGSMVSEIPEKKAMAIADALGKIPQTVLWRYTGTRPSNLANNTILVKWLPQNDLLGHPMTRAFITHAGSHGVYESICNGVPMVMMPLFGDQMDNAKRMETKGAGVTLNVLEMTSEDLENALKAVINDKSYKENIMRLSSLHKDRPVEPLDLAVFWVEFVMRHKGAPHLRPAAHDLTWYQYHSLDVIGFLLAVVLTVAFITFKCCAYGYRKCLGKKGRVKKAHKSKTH
Procedure: as §1, §2, §3

inhibition at 120 min, 100 µM (UGT2B7) [%]	inhibition at 30 min, 100 µM (UGT1A8) [%]	SMILES
-11.2	-70.9	O=c1c2cc(O)c(O)cc2oc2cc(O)c([C@@H]3O[C@H](CO)[C@@H](O)[C@H](O)[C@H]3O)c(O)c12 [MGF, 1,3,6,7-tetrahydroxyxanthone-C-2-β-D-glucoside]
31.8	57	O=c1c2cc(O)c(O)cc2oc2cc(O)cc(O)c12 [NTR, 1,3,6,7-tetrahydroxyxanthone]
